Reference: patent publication US6465521B1, “Composition for desorbing bacteria” (Ramot University Authority for Applied Research & …, priority 1988, dated 2002)

How the values were obtained:
Format in all cases: cell-based
[1] = system: Acinetobacter calcoaceticus RAG-1 (ATCC 31012); test: Adhesion of RAG-1 to various oils (percent drop in turbidity after vortexing with oil); conditions: for Percent adhesion to: mineral oil 50 / Percent adhesion to: n-nexadecane / Percent adhesion to: soybean oil: 0.16 ml of 0.5% detergent added, vortexed 2 min
Procedure: In one experiment Acinetobacter calcoaceticus RAG-1 (ATCC 31012) cells were grown overnight with vigorous shaking at 30 C in brain heart infusion broth. The cells were harvested by centrifugation and washed twice in 0.2% saline. The cells were then suspended in 0.2% saline to a corrected optical density of about 15 at 400 nm (1 cm light path). To 1.2 ml of suspended bacteria in 4 ml square disposable polystyrene cuvettes were added the following: 0.16 ml of 0.5% detergent in water (or water for control) and 0.24 ml water. Following brief mixing, 0.2 ml of oil was added (vs. controls with no oil added) and the mixtures vortexed vigorously for 2 min. Following about thirty minutes, the corrected turbidity of the lower aqueous phase was measured at 400 nm. Adhesion is calculated as the percent drop in turbidity following the mixing procedure.
The ability of another cationic surface-active agent, chlorhexidine digluconate, to enhance microbial adhesions to oil droplets is shown in the following experiment. Actnetobacter calcoaceticus RAG-1 (ATCC 31012) cells were grown overnight with vigorous shaking at 30 C in brain heart infusion broth. The cells were harvested, washed by centrifugation, and suspended in 0.2% saline to a corrected optidal density of ca. 18 at […] (1 cm light path). To 1.2 ml of suspended bacteria in 4 ml square disposable polystyrene cuvettes were added the following: 0.16 ml of 0.5% chlorhexidine digluconate in water (or water for control) and 0.24 ml water. To each cuvette 0.2 ml of oil was added (vs. control with no oil added) and the mixtures vortexed vigorously for 2 min. After about thirty minutes, the turbidity of the lower aqueous phase was measured at 400 nm and corrected for non-linearity by a standard curve. Adhesion is calculated as the percent drop in corrected turbidity following the mixing procedure.

Escherichia coli CSH 57 = test: Adhesion of Escherichia coli CSH 57 to hexadecane; conditions: 0 without
Candida albicans = test: Adhesion of the yeast Candida albicans to hexadecane; conditions: for adhesion of C. albicans to hexadecane: 0.16% cetyl pyridinium chloride; for adhesion of the yeast Candida albicans: 20 without
[2] = system: Acinetobacter calcoaceticus MR-481; test: Adhesion of Acinetobacter calcoaceticus MR-481 to oil droplets; conditions: 0 without
[3] = 0.16 ml of 0.5% chlorhexidine digluconate added, 0.2 ml oil

Compound: CCCCCCCCCCCCCCCC[n+]1ccccc1 [Cetylpyridinium chloride, cetylpyridinium chloride]
- Percent adhesion to: mineral oil 50 ([1]; 0.2 ml oil): 80%
- Percent adhesion to: n-nexadecane ([1]; 0.2 ml oil): 83%
- Percent adhesion to: soybean oil ([1]; 0.2 ml oil): 47%
- adhesion of Escherichia coli CSH 57 to hexadecane (Escherichia coli CSH 57; 0.08% cetylpyridinium chloride present): 98%
- adhesion of C. albicans to hexadecane (Candida albicans; 0.8% NaCl present): 18%
- adhesion of C. albicans to hexadecane (Candida albicans; no NaCl): 100%
- Adhesion of Acinetobacter calcoaceticus MR-481 ([2]; 0.18% of cetylpyridinium chloride): 97%

Compound: N=C(NCCCCCCNC(=N)NC(=N)Nc1ccc(Cl)cc1)NC(=N)Nc1ccc(Cl)cc1.O=C(O)[C@H](O)[C@@H](O)[C@H](O)[C@H](O)CO.O=C(O)[C@H](O)[C@@H](O)[C@H](O)[C@H](O)CO [Chlorhexidine digluconate, chlorhexidine digluconate]
- Percent adhesion to Commerical soybean oil [1, 3]: 89%
- Percent adhesion to Sigma soybean oil [1, 3]: 90%
- Percent adhesion to isohexadecane [1, 3]: 94%
- Percent adhesion to n-hexadecane [1, 3]: 95%
- adhesion of Escherichia coli CSH 57 to hexadecane (Escherichia coli CSH 57; 0.1% chlorhexidine digluconate present): 98%
- adhesion of the yeast Candida albicans (Candida albicans; 0.16% chlorhexidine digluconate): 100%

Compound: CCCCCCCCCCCCOS(=O)(=O)[O-].[Na+] [Sodium dodecyl sulphate]
- Percent adhesion to: mineral oil 50 ([1]; 0.2 ml oil): 0%
- Percent adhesion to: n-nexadecane ([1]; 0.2 ml oil): 0%
- Percent adhesion to: soybean oil ([1]; 0.2 ml oil): 0%
- adhesion to all three test oils ([1]; added at the same concentration as the cetylpyridinium chloride (w/v)): 0%

Compound: chitosan
- adhesion of Escherichia coli CSH 57 to hexadecane (Escherichia coli CSH 57; 0.015% chitosan present): 97%
- adhesion of the yeast Candida albicans (Candida albicans; 0.025% chitosan): 95%
- Adhesion of Acinetobacter calcoaceticus MR-481 ([2]; 0.019% of chitosan): 99%
